The values below come from patent EP3858439A1 (priority 2020, dated 2021).

Structures are written as SMILES. Where a name gives a salt, the structure may show the parent alone.

T1 sequence (P35372 whole entry): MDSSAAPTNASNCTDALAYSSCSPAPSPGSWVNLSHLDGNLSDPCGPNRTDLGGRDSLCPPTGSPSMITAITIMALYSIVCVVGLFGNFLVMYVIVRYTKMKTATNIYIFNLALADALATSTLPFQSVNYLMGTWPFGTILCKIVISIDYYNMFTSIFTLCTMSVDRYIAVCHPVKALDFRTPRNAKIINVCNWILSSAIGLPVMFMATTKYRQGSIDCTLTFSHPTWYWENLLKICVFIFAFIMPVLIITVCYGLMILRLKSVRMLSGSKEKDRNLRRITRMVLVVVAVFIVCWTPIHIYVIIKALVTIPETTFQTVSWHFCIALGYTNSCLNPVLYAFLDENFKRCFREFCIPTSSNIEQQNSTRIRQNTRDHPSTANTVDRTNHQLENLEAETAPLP

One assay addresses T1, human µ-opioid receptor (Homo sapiens, UniProt P35372).
T1 construct: expressed in transfected cells; host or cells: CHO-K1
The experiment in a line: Binding assay to human µ-opioid receptor ([3H]-DAMGO displacement).
Settings: not given
The protocol: Binding assay to human µ-opioid receptor
Transfected CHO-K1 cell membranes (20 µg) were incubated with [^3H]-DAMGO (1 nM) in assay buffer containing Tris-HCl 50 mM, MgCl2 5 mM at pH 7.4.
Plates were incubated at 27 °C for 60 min. After the incubation period, the reaction mixture was then transferred to MultiScreen HTS, FC plates (Millipore), filtered and plates were washed 3 times with ice-cold 10 mM Tris-HCl (pH 7.4).
Filters were dried and counted at approximately 40% efficiency in a MicroBeta scintillation counter (Perkin-Elmer) using EcoScint liquid scintillation cocktail.
As for `CCNCC(Cc1ccccc1)C(=O)N1CCC(c2ccccc2)(N(C)C)CC1` (stereo not shown) [Example 30, 2-benzyl-1-(4-(dimethylamino)-4-phenylpiperidin-1-yl)-3-(ethylamino)propan-1-one dihydrochloride], the Ki is below 100 nM.

In turn, `CNCCC(Cc1ccccc1)C(=O)N1CCC(c2ccccc2)(N(C)C)CC1` (stereo not shown) [Example 31, 2-benzyl-1-(4-(dimethylamino)-4-phenylpiperidin-1-yl)-4-(methylamino)butan-1-one dihydrochloride] returned a Ki of 100 to 500 nM.

Consider `CNCC(Cc1ccccc1)C(=O)N1CCC(c2cccc(O)c2)(N(C)C)CC1` (stereo not shown) [Example 34, 2-benzyl-1-(4-(dimethylamino)-4-(3-hydroxyphenyl)piperidin-1-yl)-3-(methylamino)propan-1-one dihydrochloride], for which the Ki is below 100 nM.

Take `CNCC(Cc1ccccc1)C(=O)N1CCC(NC)(c2cccc(O)c2)CC1` (stereo not shown) [Example 44, 2-benzyl-1-(4-(3-hydroxyphenyl)-4-(methylamino)piperidin-1-yl)-3-(methylamino)propan-1-one dihydrochloride]: the Ki was below 100 nM.

As for `CNCC(Cc1cccc(F)c1)C(=O)N1CCC(c2ccccc2)(N(C)C)CC1` (stereo not shown) [Example 52, 1-(4-(dimethylamino)-4-phenylpiperidin-1-yl)-2-(3-fluorobenzyl)-3-(methylamino) propan-1-one], the Ki was below 100 nM.

`CNCC(Cc1ccccc1C#N)C(=O)N1CCC(c2ccccc2)(N(C)C)CC1` (stereo not shown) [Example 55, 2-(3-(4-(dimethylamino)-4-phenylpiperidin-1-yl)-2-((methylamino)methyl)-3-oxopropyl)benzonitrile dihydrochloride] yielded a Ki of 100 to 500 nM.

Consider `CNCC(Cc1ccccc1F)C(=O)N1CCC(c2ccccc2)(N(C)C)CC1` (stereo not shown) [Example 57, 1-(4-(dimethylamino)-4-phenylpiperidin-1-yl)-2-(2-fluorobenzyl)-3-(methylamino)propan-1-one dihydrochloride], for which the Ki was below 100 nM.

Turning to `CNCC(Cc1ccccc1)C(=O)N1CCC(c2ccccc2)(N(C)C)CC1` (stereo not shown) [Example 70, 2-benzyl-1-(4-(dimethylamino)-4-phenylpiperidin-1-yl)-3-(methylamino)propan-1-one], the Ki lay in the range of 100 to 500 nM.

The compound `Cc1ccccc1CC(CN)C(=O)N1CCC(c2ccccc2)(N(C)C)CC1` (stereo not shown) [Example 75, 3-Amino-1-(4-(dimethylamino)-4-phenylpiperidin-1-yl)-2-(2-methylbenzyl)propan-1-one dihydrochloride] gave a Ki of 100 to 500 nM.

`CN(C)C1(c2ccccc2)CCN(C(=O)C(CNCc2ccccc2)Cc2ccccc2)CC1` (stereo not shown) [Example 76, 2-Benzyl-3-(benzylamino)-1-(4-(dimethylamino)-4-phenylpiperidin-1-yl)propan-1-one dihydrochloride] gave a Ki below 100 nM.

Take `CNC[C@H](Cc1ccccc1)C(=O)N1CCC(c2ccccc2)(N(C)C)CC1` [Example 79, (S)-2-Benzyl-1-(4-(dimethylamino)-4-phenylpiperidin-1-yl)-3-(methylamino)propan-1-one dihydrochloride]: the Ki was below 100 nM.

`CNC[C@@H](C(=O)N1CCC(c2ccccc2)(N(C)C)CC1)[C@H](C)c1ccccc1` [Example 85, (2S,3S)-1-(4-(Dimethylamino)-4-phenylpiperidin-1-yl)-2-((methylamino)methyl)-3-phenylbutan-1-one] displayed a Ki of 100 to 500 nM.

`CNC[C@H](C(=O)N1CCC(c2ccccc2)(N(C)C)CC1)[C@H](C)c1ccccc1` [Example 87, (2R,3S)-1-(4-(dimethylamino)-4-phenylpiperidin-1-yl)-2-((methylamino)methyl)-3-phenylbutan-1-one]: the Ki fell in the range of 100 to 500 nM.

The assay is the same for the next values; noted with them: Table 2; transfected CHO-K1 cell membranes, [3H]-DAMGO 1 nM, 60 min at 27 °C; read-out: Binding µ.
Consider `CN(C)C1(c2cccc(O)c2)CCN(C(=O)C2NCCc3ccccc32)CC1` (stereo not shown) [Example 35, (4-(dimethylamino)-4-(3-hydroxyphenyl)piperidin-1-yl)(1,2,3,4-tetrahydroisoquinolin-1-yl)methanone dihydrochloride], for which the Ki was below 100 nM.

On to `CNCC(Cc1ccccc1)C(=O)N1CCC(c2cccc(OC)c2)(N(C)C)CC1` (stereo not shown) [Example 41, 2-benzyl-1-(4-(dimethylamino)-4-(3-methoxyphenyl)piperidin-1-yl)-3-(methylamino)propan-1-one dihydrochloride], for which the Ki was below 100 nM.

Turning to `C[C@H](N)[C@H](Cc1ccccc1)C(=O)N1CCC(c2ccccc2)(N(C)C)CC1` [Example 48, (2S,3S)-3-amino-2-benzyl-1-(4-(dimethylamino)-4-phenylpiperidin-1-yl)butan-1-one dihydrochloride], the Ki is below 100 nM.

Regarding `C[C@@H](N)[C@@H](Cc1ccccc1)C(=O)N1CCC(c2ccccc2)(N(C)C)CC1` [Example 49, (2R,3R)-3-amino-2-benzyl-1-(4-(dimethylamino)-4-phenylpiperidin-1-yl)butan-1-one dihydrochloride], the Ki lay within 100 to 500 nM.

Take `CC[C@@H](c1ccccc1)[C@@H](CNC)C(=O)N1CCC(NC)(c2ccc(F)cc2)CC1` [Example 65, (2S,3R)-1-(4-(4-fluorophenyl)-4-(methylamino)piperidin-1-yl)-2-((methylamino)methyl)-3-phenylpentan-1-one]: the Ki was below 100 nM.

As for `CC[C@@H](c1cccc(Cl)c1)[C@@H](CN)C(=O)N1CCC(c2ccccc2)(N(C)C)CC1` [Example 66, (2S,3R)-2-(aminomethyl)-3-(3-chlorophenyl)-1-(4-(dimethylamino)-4-phenylpiperidin-1-yl)pentan-1-one], the Ki is below 100 nM.

In the case of `CC[C@@H](c1cccc(Cl)c1)[C@@H](CNC)C(=O)N1CCC(c2ccccc2)(N(C)C)CC1` [Example 67, (2S,3R)-3-(3-chlorophenyl)-1-(4-(dimethylamino)-4-phenylpiperidin-1-yl)-2-((methylamino)methyl)pentan-1-one], the Ki was below 100 nM.

For the compound `CC[C@@H](c1cccc(Cl)c1)[C@@H](CNC)C(=O)N1CCC(NC)(c2ccc(F)cc2)CC1` [Example 69, (2S,3R)-3-(3-chlorophenyl)-1-(4-(4-fluorophenyl)-4-(methylamino)piperidin-1-yl)-2-((methylamino)methyl)pentan-1-one], the Ki is below 100 nM.

For `CNC[C@H](C(=O)N1CCC(c2ccccc2)(N(C)C)CC1)[C@@H](C)c1ccccc1` [Example 86, (2R,3R)-1-(4-(dimethylamino)-4-phenylpiperidin-1-yl)-2-((methylamino)methyl)-3-phenylbutan-1-one], the Ki is below 100 nM.
